ChEMBL document CHEMBL1136214, “Indole-based heterocyclic inhibitors of p38alpha MAP kinase: designing a conformationally restricted analogue” (Bioorg Med Chem Lett, 2003)

Biological target: Mitogen-activated protein kinase 14 (Homo sapiens, UniProt Q16539)
Test: Inhibition of Mitogen-activated protein kinase p38 alpha

Mitogen-activated protein kinase 14, sequence (Q16539 whole entry): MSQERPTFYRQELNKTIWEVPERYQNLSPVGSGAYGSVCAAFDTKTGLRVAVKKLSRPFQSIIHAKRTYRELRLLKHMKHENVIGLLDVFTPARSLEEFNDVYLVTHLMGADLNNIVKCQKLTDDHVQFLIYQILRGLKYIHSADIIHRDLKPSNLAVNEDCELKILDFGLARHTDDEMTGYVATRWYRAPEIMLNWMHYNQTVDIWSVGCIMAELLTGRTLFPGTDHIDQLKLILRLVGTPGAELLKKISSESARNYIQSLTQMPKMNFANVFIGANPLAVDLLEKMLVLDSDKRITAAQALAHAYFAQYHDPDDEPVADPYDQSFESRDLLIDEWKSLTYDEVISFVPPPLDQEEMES

IC50 [µM]	Structure (SMILES)
0.02	COc1cc2[nH]ccc2cc1C(=O)N1C[C@H](C)N(Cc2ccccc2)C[C@H]1C
0.95	COc1cc2[nH]ccc2cc1C(=O)N1CCN(Cc2ccccc2)CC1
1.3	C[C@@H]1CN(Cc2ccccc2)[C@@H](C)CN1C(=O)c1ccc2[nH]ccc2c1
> 30	O=C(c1cccc2cc[nH]c12)N1CCN(Cc2ccccc2)CC1
1.65	COc1cc2[nH]ccc2cc1C(=O)N1C[C@@H](C)N(Cc2ccccc2)C[C@@H]1C
0.07	COc1cc2[nH]ccc2cc1C(=O)N1C[C@H](C)N(Cc2ccccc2)C[C@H]1C (racemic)
